The text below walks through data of publication PMC6264390, “Design, Synthesis and Structure-activity Studies of Rhodanine Derivatives as HIV-1 Integrase Inhibitors” (Molecules, 2010).

Structures are written as SMILES. Like-named read-outs stand apart in the source and are kept apart here.

In one test the target is T1, HIV-1 IN (Human immunodeficiency virus type 1 group M subtype B, UniProt P12497).
T1 construct: pre-incubated with purified recombinant IN (at a final concentration of 200 nM); made in house
As to the kind of experiment: In vitro IN inhibition assay (3’-processing and strand transfer). Particulars: Mn2+ cofactor (7.5 mM MnCl2). It is filed as biochemical. A digest of the protocol:
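Recombinant HIV-1 IN (200 nM) preincubated with compound 30 min at 30 °C in MnCl2-containing buffer (MgCl2 plus PEG for Mg2+ format), then 1 h with 20 nM 5'-32P-labeled 21-mer duplex. 3'-processing and strand-transfer products resolved on denaturing gels, phosphorimager-quantified; IC50 from log-concentration versus % inhibition.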

The target in test [1] is T2, human apurinic/apyrimidinic endonuclease 1 (APE1) (Homo sapiens, UniProt P27695).
T2 construct: His; made in house
T2 sequence (P27695 whole entry): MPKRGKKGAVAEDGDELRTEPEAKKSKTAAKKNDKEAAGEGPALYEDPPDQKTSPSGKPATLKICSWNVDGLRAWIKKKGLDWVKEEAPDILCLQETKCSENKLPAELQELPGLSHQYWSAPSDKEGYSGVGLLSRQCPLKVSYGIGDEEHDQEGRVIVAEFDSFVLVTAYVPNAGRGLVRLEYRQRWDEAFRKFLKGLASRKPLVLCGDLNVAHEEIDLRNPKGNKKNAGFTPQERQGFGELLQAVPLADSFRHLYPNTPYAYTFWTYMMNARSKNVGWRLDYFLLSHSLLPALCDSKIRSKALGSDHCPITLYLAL
Put plainly: APE1 inhibition assay. It is filed as biochemical. Particulars: read-out: Inhibition of APE1 catalytic activity IC50. A digest of the protocol: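 His-tagged APE1 (0.05 nM) preincubated with compound 10 min at 30 °C in MOPS pH 7.2 buffer with 7.5 mM MnCl2 and 10% DMSO, then 200 nM 5′-32P-labelled abasic (THF) duplex added for 10 min. Incision products resolved on denaturing gel, phosphorimaged; IC50 from %I versus log concentration.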

The mark [2] stands for this setting: read-out: Inhibition of IN catalytic activity IC50, 3’-Processing.
Setting [3] is: read-out: Inhibition of IN catalytic activity IC50, Strand Transfer.

As to `O=C(Nc1ccc(Cl)cc1)C(=S)NN1C(=O)C(=Cc2ccc([N+](=O)[O-])o2)SC1=S` [Compound 13, N-(4-chlorophenyl)-2-{5-[(5-nitro-2-furyl)methylene]-4-oxo-2-thioxo-1,3-thiazolidin-3-yl}amino-2-thioxoacetamide], the IC50 on HIV-1 IN (setting [2]) worked out at 68 ± 46 µM; at HIV-1 IN (setting [3]) it was 41 ± 27 µM; in test [1] it was 93 µM.

Turning to `COc1ccc(NC(=O)C(=S)NN2C(=O)C(=Cc3ccc([N+](=O)[O-])o3)SC2=S)cc1` [Compound 17, N-(4-methoxyphenyl)-2-{5-[(5-nitro-2-furyl)methylene]-4-oxo-2-thioxo-1,3-thiazolidin-3-yl}amino-2-thioxoacetamide], the half-maximal inhibitory concentration (IC50) is 77 ± 10 µM at HIV-1 IN (setting [2]), 60 µM on HIV-1 IN (setting [3]) and above 100 µM in test [1].

The term IC50 denotes the concentration that gives 50% inhibition.
